Where a name gives a salt, the structure may show the parent alone.

Assay [1] deals with MCF-7 breast carcinoma cells. Briefly: PARP cleavage Western blot (apoptosis) in MCF-7 cells. Format: cell-based. The settings on record: FIG. 5; for 85 kDa PARP cleavage product: agent alone. The source says:
Tamoxifen-induced apoptosis is blocked in tumor cells overexpressing GP88. FIG. 5 is a western blot measuring the level of the PARP cleavage product (85 kDa band) in MCF-7 breast carcinoma cells treated with tamoxifen, tamoxifen+GP88, tamoxifen+estradiol, GP88, and a control. […] Tamoxifen-induced apoptosis was blocked by treatment with estradiol, a compound known to block tamoxifen-induced apoptosis, as shown by the decrease in the 85 kDa band in the lane labeled “Tamoxifen+estradiol.” Tamoxifen-induced apoptosis was blocked by treatment with GP88 to the same extent as treatment by estradiol.
(§1) The present invention also provides methods of inducing apoptosis comprising administering a GP88 antagonist to a tumor cell. Apoptosis can be induced in all tumor cell types including, but not limited to, neuroblastoma, glioblastoma, astrocytoma, sarcomas, and cancers of the prostate, blood, cerebrospinal fluid, liver, kidney, breast, head and neck, pharynx, thyroid, pancreas, stomach, colon, colorectal, uterus, cervix, bone, bone marrow, testes, brain, neural tissue, ovary, skin, and lung. Apoptosis can be detected in tumor cells by a variety of techniques including, but not limited to for example, detection of Bcl-2 levels or detection of the PARP cleavage product, DNA ladder, and production of apoptotic cells. PARP or poly(ADP-ribose) polymerase is a nuclear binding protein that detects DNA strand breaks and participates in DNA repair. Cleavage of PARP is a hallmark of caspases-dependent apoptosis. When apoptosis takes place, the 116 kDa intact PARP is cleaved in two fragments, 85 kDa and 25 kDa. Detection of intact and cleaved forms of PARP by Western Blot analysis with anti-PARP antibody has been established as an apoptosis assay. Duriez et al., Biochem Cell Biol. 75: 337-49, 1997. […]
(§2) MCF-7 cells or O4 cells were seeded at a density of 7×10^5 cells in 60-mm dish in DMEM/F12 supplemented with 5% FBS. […] Intact and cleaved forms of PARP were detected using a mouse monoclonal anti-PARP antibody from Oncogene Research (San Diego, Calif.). α-Actin was used for normalizing the loading.
A general note: Immunoblotting shows a protein as a band on a membrane.

In assay [2] the test system is tamoxifen resistant MCF-7 cells. Briefly: PARP cleavage Western blot (apoptosis) in tamoxifen resistant MCF-7 cells. Format: cell-based. As to conditions: agent alone, FIG. 8.
From the text: as §1, with “kDa.” for “kDa. Detection of intact and cleaved forms of PARP by Western Blot analysis with anti-PARP antibody has been established as an apoptosis assay. Duriez et al., Biochem Cell Biol. 75: 337-49, 1997.”
as §2

Assay [3] concerns Bcl-2. In words: Bcl-2 mRNA transcript RT-PCR in MCF-7 cells. It counts as cell-based. As to conditions: all concentrations tested (0 to 2 μm tamoxifen), FIG. 6. The source says: (§3) Apoptosis is controlled by the ratio of apoptotic to anti-apoptotic factors, particularly Bcl-2, bcl-xl and bax. […] Zhang et al., Clin. Cancer Res. 5: 2971-7, 1999; Cameron et al., Eur. J. Cancer 36: 845-51, 2000. Alteration of Bcl-2 expression levels changes the bax:Bcl-2 ratio and alters susceptibility to apoptosis. O4 cells are MCF-7 cells transformed with a GP88 expression construct to overexpress GP88. Serrero et al., Proc. Natl. Acad. Sci. U.S.A. 97: 3993-8, 2000.
(§4) GP88 overexpression blocks down-regulation of Bcl-2 mRNA transcript in response to tamoxifen treatment. MCF-7 cells and MCF-7 cells overexpressing GP88 (O4 cells) were treated with 0 to 2 μm tamoxifen. FIG. 6. 5 μg of total RNA was reverse transcribed into single strand cDNA by Super Script II (BRL, Gaithersburg, Md.) using 20 ng random hexamer (Gibco) as primer. The reverse transcription reaction was carried out for 1 h at 42 C in […] Tris-HCl (pH8.3), 2.5 mM MgCl2, 50 mM KCl, DTT 0.01 M and dNTP (each 0.5 mM). A total of 30-35 PCR cycles depending on the gene amplified were performed, followed by electrophoresis on 1% agarose gel. The specific primer pairs used were as follows: for glyceraldehyde 3-phosphate dehydrogenase (GAPDH): forward primer 5′ […] 3′ (SEQ ID NO: 9), reverse primer, 5′ […] 3′ (SEQ ID NO: 10); for Bcl-2: forward primer 5′ […] 3′ (SEQ ID NO: 11), reverse primer 5′ […] […]

Assay [4] concerns Bcl-2. In words: Bcl-2 mRNA transcript RT-PCR in O4 cells. Format: cell-based. As to conditions: even at elevated doses, FIG. 6.
From the text: as §3, §4

The subject of assay [5] is O4 cells (GP88 overexpressing cells). Briefly: tumor growth of O4 cells in ovariectomized nude mice. It counts as in vivo. The source says: Athymic ovariectomized female nude mice were implanted with an estradiol pellet one day before being injected (S.C) with either MCF-7 cells or O4 cells. After 10 days when the tumors were visible, the mice received either a placebo pellet or tamoxifen pellet. Tumor growth was monitored for 45 days. At the end of the experiments, mice were euthanized and the tumors were excised and evaluated. […] In contrast, tumor volume in mice with tumor induced by O4 cells and untreated with tamoxifen increased from 75 mm^3 to 150 mm^3 in 45 days. Tamoxifen treatment of tumors overexpressing GP88 increased tumor volume more than 4 times while tumor volume of untreated GP88 overexpressing tumors increased by 2 times.

The subject of a further assay is cyclin D1. Briefly: cyclin D1 expression (FIG. 11 lanes). Format: cell-based. From the text: Tumors progress through various stages of growth and maturation leading to increased mobility of the tumor through the body. Therefore, tumor cells can be targeted at several stages during the progression of tumor growth and maturation. For example, GP88 antagonists inhibit tumor cell growth and proliferation. For example, GP88 induces expression of cyclin D1, a cell cycle regulatory protein involved in the growth and proliferation of tumor cells.

Consider `CC/C(=C(\c1ccccc1)c1ccc(OCCN(C)C)cc1)c1ccccc1` [tamoxifen, tamoxifen citrate], for which, in assay [1], the “85 kDa PARP cleavage product” value is given as “significantly increased”. The “cleavage of PARP” value in assay [2] is recorded as “does not cleave PARP”. Moreover, the Bcl-2 transcript entry is “induced down-regulation” in the assay on Bcl-2 [3] and “failed to down regulate” in the assay with Bcl-2 [4]. Besides, in assay [5] (O4 cell tumors (overexpressing GP88), tamoxifen treatment, 45 days), the “increase of tumor volume” value was “more than 4 times”. Also, the “tumor volume after 45 days” value in assay [5] (O4 cell tumors, ovariectomized nude mice with estradiol pellet, tamoxifen pellet, after 45 days, FIG. 9) is “about 225 mm^3”. The “tumor volume at start” value in assay [5] (O4 cell tumors, ovariectomized nude mice with estradiol pellet, tamoxifen pellet, start value, FIG. 9) was 50 mm^3.

As to “GP88: 88 kDa glycoprotein growth factor, epithelin/granulin precursor”, the “expression of cyclin D1” value in the assay with cyclin D1 is on record as “stimulates”. The “tamoxifen-induced apoptosis (85 kDa PARP cleavage product)” value in assay [1] (agent added together with tamoxifen) is on record as “blocked”. The “85 kDa PARP cleavage product” value in assay [1] is reported as “not in the presence of GP88”.

(Values after patent US7368428B2, “Compositions and methods for restoring sensitivity of tumor cells to antitumor therapy and inducing apoptosis” (A&G Pharmaceutical, Inc., priority 2003, dated 2008).)
